{"source": "patent US20090054333A1", "about": "“Peptide inhibitors of cyclin-dependent kinase activity and uses thereof” (priority 2006, published 2009)", "key": {"NIH/3T3 cells": {"tested_on": "NIH/3T3 cells", "assay": "colony formation assay", "type": "cell-based", "conditions": "NIH/3T3 transfected with 5 μg pEF6/V5 construct; blasticidin S selection; colonies counted after eight days", "protocol": "Colony formation assay: The effects of the pRb2/p130 spacer domain and 39 aa small peptide overexpression on cellular growth was examined by colony formation assays. Exponentially growing NIH/3T3 cells were seeded in 100-mm dishes at a density of 5×10^5 cells per 100 mm dish the day before transfection. Cells were transfected with 5 μg of pEF6/V5-spacer, pEF6/V5-Spa310 or the control vector pEF6/V5 carrying the brasticidin S-resistant gene (bsr) as a selectable marker gene. For selection, blasticidin S hydrochloride (Funakoshi, Tokyo, Japan) was added to the culture medium 48 h after transfection, at a final concentration of 10 μg/mL. After 6 days, 1×10^3 of blasticidin S-resistant cells in each well were plated in triplicate in 60-mm dishes, in order to evaluate their colony-forming ability. Cells were then incubated at 37° C. for eight days in a selecting medium containing blasticidin S hydrochloride at a final concentration of 10 μg/mL. Colonies, defined as groups of a minimum of 50 cells, were counted after staining with 2% methylene blue in 95% ethanol.\nAs presented in FIGS. 4a and 4b, the spacer region caused a decrease on the ability of the cells to form colonies of about 50% and the Spa310 of about 60%. […] After six days, an equal number of resistant cells were plated in 60-mm dishes and colony-forming ability was evaluated after eight days of continuous selection. […]"}, "[1]": {"tested_on": "A549 non-small cell lung cancer cell line", "assay": "treatment of tumor growth in vivo, A549 tumor xenografts", "set-up": "species or system athymic nude mice (CD1, nu/nu)", "conditions": "A549 xenograft in nude mice; 50 μl of 1.5 mM peptide injected into the tumoral region", "protocol": "Cell Culture The A549 (wt p53, and wt RB) non-small cell lung cancer cell line was cultured in Ham's F-12 with NaHCO3 (0.75 g NaHCO3/500 ml of Ham's F-12) and 10% (vol/vol) fetal bovine serum (FBS). The cells were cultured at 37° C. in a humidified incubator containing 5% CO2. Cells were harvested, when they reached 70-80% confluence.\nPreparation of Tumor Xenografts in Immunodeficient Mice: The animal experiments were carried out in accordance with the Guidelines for the Care and Use of Laboratory Animals (National Institute of Health publication number 85-23) and the institutional guidelines of Temple University. 4-6 week-old female athymic nude mice (CD1, nu/nu) were bought from Charles River Laboratory (Wilmington, Mass.). About a week after the mice arrived, the A549 cells were harvested and then suspended in unsupplemented culture medium without FBS. After the mice were anesthetized by isoflurane inhalation, 4×10^6 cells in a final volume of 100 μl were injected subcutaneously into the right flank of each mouse by using 1-cc syringes with 25.5-gauge needles.\nIn Vivo Treatments: The length and width of each tumor were measured every time in triplicates by using a Vernier caliper. […]\nFor each peptide type, three mice were treated. […] The tumor sizes were measured before each treatment. Tumor volumes were calculated and plotted on a graph. […]"}}}
{"molecule": "Spa310: pRb2/p130 amino acids 641-679 (39 amino acids long), SEQ ID NO:3; LTPRRVTEVRADTGGLGRSITSPTTLYDRYSSPPASTTR (listed as Homo sapiens)", "values": [{"measurement": "decrease on the ability of the cells to form colonies", "setting": "NIH/3T3 cells", "result": "about 60%"}, {"measurement": "tumor growth", "setting": "[1]", "result": "does suppress the tumor growth"}]}
{"molecule": "Spacer: full-length pRb2/p130 spacer domain, amino acids 616-828 (SEQ ID NO:20) (protein, listed as Homo sapiens) VPTCEEVMPPQNLERADEICIAGSPLTPRRVTEVRADTGGLGRSITSPTTLYDRYSSPPASTTRRRLFVENDSPSDGGTPGRMPPQPLVNAVPVQNVSGETVSVTPVPGQTLVTMATATVTANNGQTVTIPVQGIANENGGITFFPVQVNVGGQAQAVTGSIQPLSAQALAGSLSSQQVTGTTLQVPGQVAIQQISPGGQQQKQGQSVTSSSN", "values": [{"measurement": "decrease on the ability of the cells to form colonies", "setting": "NIH/3T3 cells", "result": "about 50%"}]}
